Reference: patent publication US20160138077A1, “MONITORING AND ASSESSING DEACETYLASE ENZYME ACTIVITY” (THE GENERAL HOSPITAL CORPORATION, priority 2013, published 2016)

How the values were obtained:
HDAC6 = molecular target: T1, HDAC6 (Homo sapiens, UniProt Q9UBN7); test: Caliper microfluidic endpoint IC50 assay; type: biochemical
T1 sequence (Q9UBN7 1-1215): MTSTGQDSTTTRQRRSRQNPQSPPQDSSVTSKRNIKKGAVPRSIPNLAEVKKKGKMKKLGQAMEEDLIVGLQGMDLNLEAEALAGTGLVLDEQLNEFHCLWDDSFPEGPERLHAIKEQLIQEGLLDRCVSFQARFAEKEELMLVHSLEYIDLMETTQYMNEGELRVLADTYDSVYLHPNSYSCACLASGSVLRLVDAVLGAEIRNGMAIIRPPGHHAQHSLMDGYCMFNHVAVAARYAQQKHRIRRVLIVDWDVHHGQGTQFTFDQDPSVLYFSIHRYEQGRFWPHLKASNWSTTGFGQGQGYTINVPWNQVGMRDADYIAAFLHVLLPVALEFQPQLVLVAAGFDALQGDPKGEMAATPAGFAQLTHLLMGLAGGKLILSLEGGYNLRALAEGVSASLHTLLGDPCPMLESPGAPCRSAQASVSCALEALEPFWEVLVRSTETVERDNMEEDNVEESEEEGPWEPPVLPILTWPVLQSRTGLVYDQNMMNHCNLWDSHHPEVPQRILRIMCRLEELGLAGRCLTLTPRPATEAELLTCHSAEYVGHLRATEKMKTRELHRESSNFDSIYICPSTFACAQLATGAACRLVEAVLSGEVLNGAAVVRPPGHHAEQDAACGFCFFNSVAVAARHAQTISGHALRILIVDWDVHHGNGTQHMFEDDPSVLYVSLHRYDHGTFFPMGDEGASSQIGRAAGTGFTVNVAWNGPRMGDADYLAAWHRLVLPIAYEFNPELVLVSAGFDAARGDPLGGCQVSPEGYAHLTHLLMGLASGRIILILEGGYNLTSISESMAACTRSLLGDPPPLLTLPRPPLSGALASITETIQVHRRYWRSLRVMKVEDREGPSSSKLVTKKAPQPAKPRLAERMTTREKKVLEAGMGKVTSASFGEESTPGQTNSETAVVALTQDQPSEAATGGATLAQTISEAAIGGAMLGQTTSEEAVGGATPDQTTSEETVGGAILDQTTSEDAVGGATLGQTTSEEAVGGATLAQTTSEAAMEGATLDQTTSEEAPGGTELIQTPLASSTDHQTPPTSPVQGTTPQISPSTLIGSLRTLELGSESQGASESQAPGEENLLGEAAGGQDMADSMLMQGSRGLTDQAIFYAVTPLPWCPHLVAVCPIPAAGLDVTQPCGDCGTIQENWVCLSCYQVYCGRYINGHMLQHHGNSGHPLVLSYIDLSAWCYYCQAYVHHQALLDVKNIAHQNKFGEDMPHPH
Protocol: HP-1 and HP-2 IC50 values for HDAC1 were determined using the Trypsin-coupled assay as well as the Caliper endpoint assay. HP-1 and HP-2 IC50 values for HDAC2, HDAC3, HDAC6 and HDAC8 were determined with the Caliper endpoint assay.
The Caliper microfluidic assay was performed at the Broad Institute exactly as previously described.^5
IC50 measurements. HP-1 and HP-2 IC50 values for HDAC1 were determined using the Trypsin-coupled assay as well as the Caliper endpoint assay. HP-1 and HP-2 IC50 values for HDAC2, HDAC3, HDAC6 and HDAC8 were determined with the Caliper endpoint assay (full experimental details in Example 1).

HDAC8 = molecular target: T2, HDAC8 (Homo sapiens, UniProt Q9BY41); test: LCMS characterization of enzymatic deacetylation by HDAC8; type: biochemical; details: 5 μM probe, 12 hours at 37° C.
T2 construct: purchased Cayman Chemicals
T2 sequence (Q9BY41 1-377): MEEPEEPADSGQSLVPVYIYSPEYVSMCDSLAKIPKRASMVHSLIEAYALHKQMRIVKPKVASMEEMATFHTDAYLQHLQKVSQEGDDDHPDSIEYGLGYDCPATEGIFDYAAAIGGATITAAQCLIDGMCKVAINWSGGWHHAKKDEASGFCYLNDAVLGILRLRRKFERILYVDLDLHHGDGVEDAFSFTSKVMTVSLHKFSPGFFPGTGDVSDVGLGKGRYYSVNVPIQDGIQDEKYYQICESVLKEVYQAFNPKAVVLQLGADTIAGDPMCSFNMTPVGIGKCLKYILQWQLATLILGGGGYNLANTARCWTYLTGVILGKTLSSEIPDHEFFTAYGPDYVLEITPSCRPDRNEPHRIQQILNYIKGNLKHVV
Protocol: The enzymatic cleavage of HP-1 and HP-2 was analyzed by performing LCMS assays with HeLa nuclear extract (AnaSpec), HeLa whole cell lysate (Santa Cruz Inc.), and the following purified HDAC isoforms: 1, 2, 3, 6 and 8 (HDAC1, 3 and 8 from Cayman Chemicals and HDAC2 and 6 provided by Dr. Stephen Haggarty). Solutions containing (i) vehicle with DMSO in HDAC buffer, (ii) 5 μM probe in HDAC buffer, (iii) 5 μM probe and HDAC enzyme/HeLa nuclear extract/HeLa whole cell lysate in HDAC buffer, or (iv) 5 μM probe and HDAC enzyme/HeLa nuclear extract/HeLa whole cell lysate pre-incubated with 10 μM SAHA (Provided by Dr. Stephen Haggarty) in HDAC buffer were incubated for 12 hours at 37° C. Following incubation, a 20 μL aliquot of supernatant from each sample was analyzed by LCMS. […] For HP-1, the (M+H)^+ ion for the corresponding aldehyde (8, DHP-1) was detected, which formed following reaction of the initial imine deacetylation product with water. […] The peak area for each detected compound was measured to determine the % deacetylation of each probe. All assay samples were analyzed in triplicate. […]
LCMS characterization of HDAC enzymatic action on HP-1 and HP-2. […] Following incubation, an aliquot of supernatant from each sample was analyzed by LCMS. […] The peak area for each detected compound was measured to determine the % deacetylation of each probe (full experimental details in Example 1).

For `CC(=O)NC=CCCCCNC(=O)CCCCCNc1ccc([N+](=O)[O-])c2nonc12` [HP-1], the IC50 (HDAC6; HDAC6, Caliper endpoint assay) was 12 µM, the “binding to HDAC6 (in words)” value (HDAC6; competitive inhibition with a peptide substrate) was “bind” and the “% HP-1 to DHP-1” value (HDAC8; HDAC8, +SAHA (10 μM)) was 0%. For the same compound, the “% HP-1 to DHP-1” value (HDAC8; HDAC8, −SAHA) was 0%.
